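Each compound was tested at five concentrations against cells in 96-well plates for 48 hours. The concentration for 50% growth inhibition is given as GI50. TGI denotes the concentration required for complete inhibition of growth.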
How the values were obtained:
Assay in all cases: inhibition of tumour cell growth, NCI panel, 48 h
[1] = system: A498 renal
[2] = system: BT-549 breast
[3] = system: COLO 205 colon
[4] = system: HT29 colon
[5] = system: KM12 colon
[6] = system: M14 melanoma
[7] = system: MCF7 breast
[8] = system: SK-OV-3 ovarian
[9] = system: SR leukemia
[10] = system: SW-620 colon

SMILES	GI50 [1] [µM]	TGI [1] [µM]	GI50 [2] [µM]	TGI [2] [µM]	GI50 [3] [µM]	TGI [3] [µM]	GI50 [4] [µM]	TGI [4] [µM]	GI50 [5] [µM]	TGI [5] [µM]	GI50 [6] [µM]	TGI [6] [µM]	GI50 [7] [µM]	TGI [7] [µM]	GI50 [8] [µM]	TGI [8] [µM]	GI50 [9] [µM]	TGI [9] [µM]	GI50 [10] [µM]	TGI [10] [µM]
CS(=O)(=O)Nc1ccc(-c2ccc3c(NC(=O)C4CC4)n[nH]c3c2)cc1	> 25	> 25	> 19.2	> 25	> 25	> 25	> 23.6	> 25	> 16.2	> 25	24.9	> 25	> 23.2	> 25	13.7	> 25	> 21.2	> 25	> 25	> 25
CNc1nc(NC2CCCC2)nc(Sc2ccc(OC)cc2)n1	> 10	> 10	> 10	> 10	> 10	> 10	> 10	> 10	> 10	> 10	> 10	> 10	> 10	> 10	> 10	> 10	> 10	> 10	> 10	> 10
COc1ccc2c(-c3cc4ccccc4o3)cc(=O)oc2c1		> 92		> 100		> 100		> 100		> 100		> 100		> 100		52.1		> 100		> 100
O=C(Nc1cc(-c2ccccc2)[nH]n1)c1ccc(Cl)cc1	1.27	> 100	> 100	> 100	> 100	> 100	6.67	> 100	3.28	> 100	8.66	> 100	> 100	> 100	3.67	> 100	5.65	> 100		
NCCN1CCN(c2nccc(-c3ccc4ccccc4c3)n2)CC1	1.59	3.3	4.89	18.2	1.76	3.41	1.93	3.77	1.85	3.48	1.89	3.54	1.67	3.52	2.1	5.34	1.87	6.11	1.83	3.61
CNC(=O)c1cn(C[C@H](F)CCc2ccc(NC(=O)Cc3cc(OC4CC(F)(F)C4)cc(C)n3)nn2)nn1	0.0854	1.27	> 100	> 100	> 100	> 100	> 100	> 100	> 100	> 100	> 100	> 100	> 100	> 100	> 100	> 100	> 81.8	> 100	> 100	> 100
COc1cc(/C=C2\CC3C4CC=C5CC(N6CCCC6)CC[C@]5(C)C4CC[C@]3(C)C2OC(C)=O)ccc1OCCN1CCCC1 (stereo not given in full)	1.52	3.26	16.6	31.4	3.61	12.9	1.82	4.39	2.27	5.99	1.89	3.41	1.62	3.17	3.28	8.92	1.83	4.01		
CCCCCC(=O)Oc1ccc(/C(=C(\C)c2ccc(OC)cc2)c2ccc(OCCN3CCCCC3)cc2)cc1	13.5	26.5	10.7	23.2	2.02	4.55	3.36	13.4	8.83	27	2.02	4.37	0.726	14.4	10.6	22.7	2.71	22.2	3.59	14
Cc1c(-c2nc(N)nc(C3CC3)c2C)nc(N)nc1C1CC1		> 100		> 100		> 100		> 100		> 100		> 100		> 100		> 100		> 100		> 100
CCN(CCO)CCNc1ccc(C)c2sc3cc(Cl)ccc3c(=O)c12			3.78	14	1.14	2.62	1.28	2.62	1.67	3.36	1.64	3.23	1.21	2.78	1.61	3.09	0.751	2.78	1.27	2.77
Cc1ccc(C(=O)CC(Sc2cccc(Cl)c2Cl)c2ccc(Cl)cc2)cc1C (stereo not given)	19.2	46.8	24.5	46.9	20.8	46.5			15.4	34.1	26.7	65.1	15.9	36.1	23.3	59.7	7.23	> 100	17.8	36
COc1ccc2c(c1)C=CC(C#N)N2C(=O)c1ccccc1 (stereo not given)	< 0.01	0.0825		> 67.5	< 0.01	< 0.048	< 0.01	> 42.1	< 0.01	> 100			< 0.01	> 100	< 0.01	> 100	< 0.01	> 100	< 0.01	> 100
Cc1c(C(=O)NN)nnn1-c1ccnc2c(C(F)(F)F)cccc12	> 100	> 100	> 100	> 100	> 100	> 100			> 100	> 100	> 100	> 100	> 100	> 100	> 100	> 100	> 100	> 100	> 100	> 100
CC(=O)n1c(-c2ccc(Cl)cc2)nc2c(c1=O)C(c1ccc(Cl)cc1)c1sc3c(Cl)cccc3c1O2 (stereo not given)			0.373	1.89	0.364	1.57	0.368	1.33	0.433	1.78	0.3	1.24	0.282	1.47	0.352	1.95	0.436	3.95	0.388	1.68
